{Fluorescein} = fluorescein label
Molecular target: T1, human α-Thrombin (Homo sapiens, UniProt P00734)
T1 construct: the light chain and the heavy chain were separated by reverse phase chromatography; gift from Prof; Bode, MPI Martinsried
Experiment: CALI experiment: serine-protease activity of thrombin measured with Chromozym TH after laser irradiation
Type: biochemical
Details: 0.38 μM thrombin, 0.76 μM aptamer (1:2); argon ion laser 496 nm, 800 mW, 30 seconds per well; percentage of thrombin activity in a non-irradiated control; Chromozym TH substrate
Experimental: Complexes were formed by mixing 7.6 μM thrombin with the fluorescein-labeled aptamer (1:2 molar ratio) in 50 mM Tris buffer, pH 8.3, 100 mM NaCl, and an incubation time of 30 min on ice in the dark.
Control samples were prepared as described above, either omitting the aptamer, using a non-labeled aptamer or an equal concentration of FITC. Subsequently, the solutions were diluted 20-fold with the same buffer. The final concentrations were 0.38 μM thrombin and 0.76 μM aptamer. The samples were pipetted in 100 μl aliquots into wells of a flat bottom 96-well microtiter plate (Nunc A/S, Roskilde, DK), typically 1.2 ml or 12 wells total per sample. The plate was blocked with 1% BSA in PBS for 1 hour and then washed extensively prior to use.
The serine-protease activity of thrombin was measured using Chromozym TH (Roche Diagnostics GmbH, Mannheim, Germany) as substrate. […] The absorbance increase at 405 nm, due to the cleavage of Chromozym TH into a residual peptide and free […] by thrombin, was followed with the time. The absorbance difference per minute, calculated in the linear range, was used to calculate the thrombin activity in U/ml. […]

Flu-THR15: fluorescein-labeled, thrombin-specific aptamer, 15-mer oligonucleotide GGTTGGTGTGGTTGG with the fluorescein moiety linked to its 5′ end (DNA, 5' {Fluorescein}, backbone not given here)
thrombin inactivation upon irradiation (CALI effect): 55%
